Experiment in all cases: Post-emergence herbicidal activity test (stem and leaf spray, pot culture)
What all share (format): in vivo
Common to all, as to settings: 3 weeks after spraying

One assay has as its system Trifoliumre pensL. The method in brief: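 Pot-grown weeds in loam (pH 7), greenhouse at 20–30 °C, sprayed once post-emergence at the 2–3-leaf stage. Compound in acetone with Tween 80 plus methyl oleate oil (1.5 L/ha), applied at 10, 5 and 2.5 g/mu by spray tower. Effect scored 3 weeks after spraying, averaged over three repeats.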
The subject of another assay is Echinochloa crusgalli. The method in brief:
(§1)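 Graded 0–5 on fresh-weight growth control rate 3 weeks after a single spray-tower application at 10, 5 or 2.5 g/mu. Compounds in acetone with Tween 80 and methyl oleate synergist (1.5 liters/ha), applied to greenhouse weeds at 2- to 3-leaf stage.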

Another assay concerns Abutilon theophrasti. Put shortly: as §1
A further assay relates to Portulaca oleracea. Put shortly:
as §1

In another assay the test system is Setaria viridis. The method in brief: as §1
The subject of a further assay is Amaranthus retroflexus. The method in brief:
as §1

Molecules are shown by their SMILES.

In the case of `O=C1C2=C(CCCC2)C(=O)N1c1cc(OCc2nnc(-c3ccc(I)cc3)o2)c(Cl)cc1F` [Compound B17], the “Post-emergence herbicidal activity, Trifoliumre pensL. (grade)” value in the assay with Trifoliumre pensL. (dosage 2.5 g/mu), in the assay with Trifoliumre pensL. (dosage 5 g/mu) and in the assay with Trifoliumre pensL. (dosage 10 g/mu) was 5 (Grade 5: the growth control rate is greater than or equal to 85%) in each case. Moreover, the “Post-emergence herbicidal activity, E. crusgalli (grade)” value is 1 (Grade 1: the growth control rate is greater than or equal to 5% and less than 20%) with Echinochloa crusgalli (dosage 2.5 g/mu); 2 (Grade 2: the growth control rate is greater than or equal to 20% and less than 40%) in the assay on Echinochloa crusgalli (dosage 5 g/mu); 3 (Grade 3: the growth control rate is greater than or equal to 40% and less than 60%) with Echinochloa crusgalli (dosage 10 g/mu). The “Post-emergence herbicidal activity, A. theophrasti (grade)” value in the assay with Abutilon theophrasti (dosage 2.5 g/mu), in the assay on Abutilon theophrasti (dosage 5 g/mu) and in the assay on Abutilon theophrasti (dosage 10 g/mu) was 5 (Grade 5: the growth control rate is greater than or equal to 85%) throughout. Besides, the “Post-emergence herbicidal activity, P. oleracea (grade)” value in the assay with Portulaca oleracea (dosage 2.5 g/mu), in the assay with Portulaca oleracea (dosage 5 g/mu) and with Portulaca oleracea (dosage 10 g/mu) was 5 (Grade 5: the growth control rate is greater than or equal to 85%) in each case. The “Post-emergence herbicidal activity, S. viridis (grade)” value was 2 (Grade 2: the growth control rate is greater than or equal to 20% and less than 40%) with Setaria viridis (dosage 2.5 g/mu); 3 (Grade 3: the growth control rate is greater than or equal to 40% and less than 60%) in the assay with Setaria viridis (dosage 5 g/mu); 4 (Grade 4: the growth control rate is greater than or equal to 60% and less than 85%) with Setaria viridis (dosage 10 g/mu). The “Post-emergence herbicidal activity, A. retroflexus (grade)” value with Amaranthus retroflexus (dosage 2.5 g/mu), in the assay on Amaranthus retroflexus (dosage 5 g/mu) and in the assay on Amaranthus retroflexus (dosage 10 g/mu) was 5 (Grade 5: the growth control rate is greater than or equal to 85%) throughout.
`O=C1C2=C(CCCC2)C(=O)N1c1cc(OCc2nnc(-c3ccc([N+](=O)[O-])cc3)o2)c(Cl)cc1F` [Compound B18]: the “Post-emergence herbicidal activity, Trifoliumre pensL. (grade)” value in the assay on Trifoliumre pensL. (dosage 2.5 g/mu), with Trifoliumre pensL. (dosage 5 g/mu) and with Trifoliumre pensL. (dosage 10 g/mu) was 5 (Grade 5: the growth control rate is greater than or equal to 85%) in each case. The “Post-emergence herbicidal activity, E. crusgalli (grade)” value in the assay with Echinochloa crusgalli (dosage 2.5 g/mu) was 1 (Grade 1: the growth control rate is greater than or equal to 5% and less than 20%); with Echinochloa crusgalli (dosage 5 g/mu) it was 2 (Grade 2: the growth control rate is greater than or equal to 20% and less than 40%); in the assay on Echinochloa crusgalli (dosage 10 g/mu), 3 (Grade 3: the growth control rate is greater than or equal to 40% and less than 60%). The “Post-emergence herbicidal activity, A. theophrasti (grade)” value is 4 (Grade 4: the growth control rate is greater than or equal to 60% and less than 85%) in the assay with Abutilon theophrasti (dosage 2.5 g/mu); 5 (Grade 5: the growth control rate is greater than or equal to 85%) with Abutilon theophrasti (dosage 5 g/mu); 5 (Grade 5: the growth control rate is greater than or equal to 85%) with Abutilon theophrasti (dosage 10 g/mu). The “Post-emergence herbicidal activity, P. oleracea (grade)” value is 4 (Grade 4: the growth control rate is greater than or equal to 60% and less than 85%) in the assay on Portulaca oleracea (dosage 2.5 g/mu); 5 (Grade 5: the growth control rate is greater than or equal to 85%) in the assay on Portulaca oleracea (dosage 5 g/mu); 5 (Grade 5: the growth control rate is greater than or equal to 85%) in the assay on Portulaca oleracea (dosage 10 g/mu). For the same compound, the “Post-emergence herbicidal activity, S. viridis (grade)” value is 2 (Grade 2: the growth control rate is greater than or equal to 20% and less than 40%) in the assay with Setaria viridis (dosage 2.5 g/mu); 3 (Grade 3: the growth control rate is greater than or equal to 40% and less than 60%) in the assay on Setaria viridis (dosage 5 g/mu); 4 (Grade 4: the growth control rate is greater than or equal to 60% and less than 85%) with Setaria viridis (dosage 10 g/mu). Further, the “Post-emergence herbicidal activity, A. retroflexus (grade)” value in the assay with Amaranthus retroflexus (dosage 2.5 g/mu), in the assay with Amaranthus retroflexus (dosage 5 g/mu) and in the assay with Amaranthus retroflexus (dosage 10 g/mu) was 5 (Grade 5: the growth control rate is greater than or equal to 85%) each time.
As for `O=C1C2=C(CCCC2)C(=O)N1c1cc(OCc2nnc(-c3ccc(Cl)cc3F)o2)c(Cl)cc1F` [Compound B19], the “Post-emergence herbicidal activity, Trifoliumre pensL. (grade)” value in the assay on Trifoliumre pensL. (dosage 2.5 g/mu), with Trifoliumre pensL. (dosage 5 g/mu) and in the assay with Trifoliumre pensL. (dosage 10 g/mu) was 5 (Grade 5: the growth control rate is greater than or equal to 85%) each time. The “Post-emergence herbicidal activity, E. crusgalli (grade)” value in the assay on Echinochloa crusgalli (dosage 2.5 g/mu) was 1 (Grade 1: the growth control rate is greater than or equal to 5% and less than 20%); in the assay on Echinochloa crusgalli (dosage 5 g/mu), 2 (Grade 2: the growth control rate is greater than or equal to 20% and less than 40%); with Echinochloa crusgalli (dosage 10 g/mu), 3 (Grade 3: the growth control rate is greater than or equal to 40% and less than 60%). Besides, the “Post-emergence herbicidal activity, A. theophrasti (grade)” value with Abutilon theophrasti (dosage 2.5 g/mu), with Abutilon theophrasti (dosage 5 g/mu) and in the assay on Abutilon theophrasti (dosage 10 g/mu) was 5 (Grade 5: the growth control rate is greater than or equal to 85%) in each case. For the same compound, the “Post-emergence herbicidal activity, P. oleracea (grade)” value in the assay with Portulaca oleracea (dosage 2.5 g/mu), with Portulaca oleracea (dosage 5 g/mu) and in the assay on Portulaca oleracea (dosage 10 g/mu) was 5 (Grade 5: the growth control rate is greater than or equal to 85%) throughout. The “Post-emergence herbicidal activity, S. viridis (grade)” value in the assay on Setaria viridis (dosage 2.5 g/mu) is 2 (Grade 2: the growth control rate is greater than or equal to 20% and less than 40%); with Setaria viridis (dosage 5 g/mu), 3 (Grade 3: the growth control rate is greater than or equal to 40% and less than 60%); in the assay with Setaria viridis (dosage 10 g/mu) it was 4 (Grade 4: the growth control rate is greater than or equal to 60% and less than 85%). Further, the “Post-emergence herbicidal activity, A. retroflexus (grade)” value with Amaranthus retroflexus (dosage 2.5 g/mu), in the assay on Amaranthus retroflexus (dosage 5 g/mu) and in the assay on Amaranthus retroflexus (dosage 10 g/mu) was 5 (Grade 5: the growth control rate is greater than or equal to 85%) throughout.
For `O=C1C2=C(CCCC2)C(=O)N1c1cc(OCc2nnc(-c3ccc([N+](=O)[O-])cc3F)o2)c(Cl)cc1F` [Compound B20], the “Post-emergence herbicidal activity, Trifoliumre pensL. (grade)” value with Trifoliumre pensL. (dosage 2.5 g/mu) was 4 (Grade 4: the growth control rate is greater than or equal to 60% and less than 85%); in the assay with Trifoliumre pensL. (dosage 5 g/mu), 5 (Grade 5: the growth control rate is greater than or equal to 85%); in the assay with Trifoliumre pensL. (dosage 10 g/mu) it was 5 (Grade 5: the growth control rate is greater than or equal to 85%). Also, the “Post-emergence herbicidal activity, E. crusgalli (grade)” value in the assay with Echinochloa crusgalli (dosage 2.5 g/mu) is 1 (Grade 1: the growth control rate is greater than or equal to 5% and less than 20%); in the assay with Echinochloa crusgalli (dosage 5 g/mu) it was 2 (Grade 2: the growth control rate is greater than or equal to 20% and less than 40%); in the assay with Echinochloa crusgalli (dosage 10 g/mu) it was 3 (Grade 3: the growth control rate is greater than or equal to 40% and less than 60%). In addition, the “Post-emergence herbicidal activity, A. theophrasti (grade)” value in the assay on Abutilon theophrasti (dosage 2.5 g/mu), in the assay with Abutilon theophrasti (dosage 5 g/mu) and in the assay on Abutilon theophrasti (dosage 10 g/mu) was 5 (Grade 5: the growth control rate is greater than or equal to 85%) in each case. For the same compound, the “Post-emergence herbicidal activity, P. oleracea (grade)” value with Portulaca oleracea (dosage 2.5 g/mu), with Portulaca oleracea (dosage 5 g/mu) and in the assay with Portulaca oleracea (dosage 10 g/mu) was 5 (Grade 5: the growth control rate is greater than or equal to 85%) each time. Besides, the “Post-emergence herbicidal activity, S. viridis (grade)” value is 2 (Grade 2: the growth control rate is greater than or equal to 20% and less than 40%) in the assay with Setaria viridis (dosage 2.5 g/mu); 3 (Grade 3: the growth control rate is greater than or equal to 40% and less than 60%) in the assay with Setaria viridis (dosage 5 g/mu); 4 (Grade 4: the growth control rate is greater than or equal to 60% and less than 85%) in the assay on Setaria viridis (dosage 10 g/mu). In addition, the “Post-emergence herbicidal activity, A. retroflexus (grade)” value with Amaranthus retroflexus (dosage 2.5 g/mu) is 4 (Grade 4: the growth control rate is greater than or equal to 60% and less than 85%); with Amaranthus retroflexus (dosage 5 g/mu), 5 (Grade 5: the growth control rate is greater than or equal to 85%); in the assay on Amaranthus retroflexus (dosage 10 g/mu) it was 5 (Grade 5: the growth control rate is greater than or equal to 85%).

Values taken from patent US20240300932A1, “N-PHENYLIMINE DERIVATIVE AND PREPARATION METHOD AND USE THEREOF” (Guizhou University, priority 2023, published 2024).
